Test results taken from paper PMC5025259 (ACS infectious diseases, 2016).

Legend:
[1] = tested on: BSA endocytosis in bloodstream T. brucei; test: Endocytosis assay: BSA-A647 uptake by bloodstream trypanosomes; assay type: cell-based, Trypanosoma brucei; settings: bulk-phase uptake
[2] = tested on: bloodstream form (BSF) CA427 trypanosomes; test: Proliferation inhibition assay; assay type: cell-based, Trypanosoma brucei; settings: axenic cultures of bloodstream trypanosomes, 48 h
[3] = tested on: Tf endocytosis in HeLa cells; test: HeLa cell endocytosis of transferrin; assay type: cell-based, human; settings: each compound 10 μM, Tf-Alexa488 5 μg/mL, 15 min at 37 °C
[4] = target: T1, rTbGSK3β (Trypanosoma brucei brucei, UniProt Q388M1); test: biochemical
T1 sequence (Q388M1 1-352): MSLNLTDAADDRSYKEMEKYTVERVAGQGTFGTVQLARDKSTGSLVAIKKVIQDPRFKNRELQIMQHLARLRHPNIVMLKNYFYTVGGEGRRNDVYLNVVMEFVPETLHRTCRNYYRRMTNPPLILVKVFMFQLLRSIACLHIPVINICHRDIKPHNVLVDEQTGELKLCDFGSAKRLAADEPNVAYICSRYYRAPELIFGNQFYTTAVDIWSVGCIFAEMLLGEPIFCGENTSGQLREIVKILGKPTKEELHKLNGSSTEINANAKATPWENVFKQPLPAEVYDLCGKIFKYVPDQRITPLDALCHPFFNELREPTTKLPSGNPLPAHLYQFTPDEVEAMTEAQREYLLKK

[5] = tested on: transferrin (Tf) endocytosis in bloodstream T. brucei; settings: cited from earlier work
[6] = tested on: transferrin (Tf) endocytosis in bloodstream T. brucei; assay type: cell-based, Trypanosoma brucei; settings: Figure S1
[7] = tested on: bloodstream form (BSF) CA427 trypanosomes; settings: read-out: GI50 (concentration of drug that inhibits growth by 50%); trypanosome proliferation; cited from earlier work
[8] = tested on: Hp-Hb endocytosis in bloodstream T. brucei; test: Endocytosis assay: Hp-Hb-A488 uptake by bloodstream trypanosomes; assay type: cell-based, Trypanosoma brucei; settings: Hp-Hb 38 nM
[9] = tested on: Tf endocytosis in TbGSK3β overexpression trypanosomes; test: Tf endocytosis in trypanosomes overexpressing TbGSK3β; assay type: cell-based, Trypanosoma brucei; settings: clone 1, TWS119 10 μM, 3 h induction

SMILES	Effect on BSA endocytosis [1]	T. brucei GL50 [2] [µM]	Effect on Tf endocytosis in HeLa cells [3]	also measured
O=C1Nc2ccc3ncsc3c2/C1=C/Nc1ccc(S(=O)(=O)Nc2ccccn2)cc1 [GW8510]	decreased	0.12	Neither TbGSK3β inhibitor affected	
O=S(=O)(NCCNC/C=C/c1ccc(Br)cc1)c1cccc2cnccc12 [H-89]			decreased	
Cc1cc(Nc2cc(CN3CCOCC3)c3nc(C)c(Cc4ccc(Cl)cc4F)n3n2)n[nH]1 [LY2784544]		1.0		IC50 [4]: 0.6 ± 0.2 µM
CS(=O)(=O)CCNCc1ccc(-c2ccc3ncnc(Nc4ccc(OCc5cccc(F)c5)c(Cl)c4)c3c2)o1 [Lapatinib]				Effect on Tf endocytosis in T. brucei ([5]; ref Guyett, P.J., et al., manuscript submitted): blocks
C[C@@H](Nc1ncnc2[nH]c(-c3ccc(O)cc3)cc12)c1ccccc1 [PKI-166]	did not inhibit			IC50 [4]: > 20 µM; Effect on Tf endocytosis [6]: did not inhibit; GI50 [7]: 5 µM
CNC(=O)c1cc(Oc2ccc(NC(=O)Nc3ccc(Cl)c(C(F)(F)F)c3)cc2)ccn1 [Sorafenib]		3.1		
Nc1cccc(-c2cc3c(Oc4cccc(O)c4)ncnc3[nH]2)c1 [TWS119]	did not decrease	1.1	Neither TbGSK3β inhibitor affected	Effect on Hp-Hb endocytosis [8]: did not decrease; Reduction of Tf endocytosis driven by TbGSK3β overexpression [9]: 300%
N#C/C(=C\c1ccc(O)c(O)c1)C(N)=S [tyrphostin-A47]				Effect on Tf endocytosis in the parasite [5]: blocks
